In patent publication US7691844B2, “Nonpeptide substituted spirobenzoazepines as vasopressin antagonists” (Ortho-McNeil Pharmaceutical, Inc., priority 2000, dated 2010):

Legend:
V1a [1] = target: T1, V1a (Homo sapiens, UniProt P37288); test: In-vitro receptor binding assay (3H-arginine-8-vasopressin), V1a
Procedure, shortened: (§1)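 Radioligand is 3H-arginine-8-vasopressin, incubated with receptor for one hour at room temperature, then filtered on GF/C plates and counted by scintillation. Non-specific binding was defined with 1.25 μM vasopressin, and results are given as % inhibition.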

V1b = target: T2, V1b (Homo sapiens, UniProt P47901); test: In-vitro receptor binding assay (3H-arginine-8-vasopressin), V1b; conditions: @ 10 μM
T2 sequence (P47901 1-424): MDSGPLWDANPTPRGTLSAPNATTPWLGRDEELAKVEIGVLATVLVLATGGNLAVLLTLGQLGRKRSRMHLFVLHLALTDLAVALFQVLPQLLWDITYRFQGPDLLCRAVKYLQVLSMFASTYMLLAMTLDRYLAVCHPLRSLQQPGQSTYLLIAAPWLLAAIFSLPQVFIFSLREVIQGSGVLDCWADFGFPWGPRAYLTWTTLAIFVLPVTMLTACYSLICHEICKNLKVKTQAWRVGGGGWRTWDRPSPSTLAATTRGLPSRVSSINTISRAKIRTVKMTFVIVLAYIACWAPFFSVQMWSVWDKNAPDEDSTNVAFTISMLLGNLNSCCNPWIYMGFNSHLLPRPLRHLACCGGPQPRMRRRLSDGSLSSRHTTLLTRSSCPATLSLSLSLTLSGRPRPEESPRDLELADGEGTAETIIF
Experimental: (A) In-Vitro Binding Assay […] The reaction plates are allowed to sit at room temperature for one hour. The samples are filtered through Unifilter GF/C plates (presoaked in 0.3 polyethyleneimine). The plates are washed 5 times with cold physiological saline containing 0.05% Tween 20. After drying, the bottom of the filter plates are sealed and 0.025 ml of Microscint-20 is added to each filter. The top of the plate is sealed, and the plate is counted. Non-specific binding is determined by the addition of 1.25 μM […]-vasopressin in those wells. % Inh. is calculated as follows: […]

human V2 receptor = human V2 receptor (Homo sapiens, UniProt P30518); test: In-vitro receptor binding assay (3H-arginine-8-vasopressin), V2
Procedure, shortened: as §1

V1a [2] = target: T1, V1a; test: V1a vasopressin receptor functional activity (inhibition of vasopressin-induced intracellular calcium, FLIPR, V1a-HEK cells); format: cell-based; design: expressed in transfected cells; conditions: HEK-293 cells transfected with human V1a receptor; vasopressin challenge
Experimental: [formula] (B) V1a Vasopressin Receptor Functional Activity
The V1a receptor is a G-protein coupled receptor, which upon activation triggers an increase in intracellular calcium mobilization. To evaluate compounds for their functional V1a receptor activity, HEK-293 cells were transfected with the human V1a receptor (V1a-HEK cells). HEK-293 cells were grown in DMEM (Dulbecco's modified Eagle Media) supplemented with 10% FBS and glutamine. HEK-cells were passed biweekly by trypsinization and seeded into 96 well plates at 33,000 cells per well. HEK-293 cells were transfected with human V1a receptor DNA using DMRIE-C reagent from Life Technologies. Stable lines were generated by selecting cells grown in culture media containing geneticin. After growing in Packard Clear-View black 96 well plates for 4-6 days, V1a-HEK cells were loaded with the calcium-sensitive fluorescence dye, FLUO-3 AM. Changes in cell fluorescence were quantitated using FLIPR (Fluorometric Imaging Plate Reader; Molecular Devices, Sunnyvale, Calif.). Test compounds were first added to the cells and the resulting changes in fluorescence measured to detect receptor agonistic activity. Five minutes later the cells were challenged with vasopressin to test compounds for their antagonistic activity. Receptor antagonists inhibit the ability of vasopressin to stimulate increases in intracellular fluorescence. IC50's were calculated.

T1 sequence (P37288 whole entry): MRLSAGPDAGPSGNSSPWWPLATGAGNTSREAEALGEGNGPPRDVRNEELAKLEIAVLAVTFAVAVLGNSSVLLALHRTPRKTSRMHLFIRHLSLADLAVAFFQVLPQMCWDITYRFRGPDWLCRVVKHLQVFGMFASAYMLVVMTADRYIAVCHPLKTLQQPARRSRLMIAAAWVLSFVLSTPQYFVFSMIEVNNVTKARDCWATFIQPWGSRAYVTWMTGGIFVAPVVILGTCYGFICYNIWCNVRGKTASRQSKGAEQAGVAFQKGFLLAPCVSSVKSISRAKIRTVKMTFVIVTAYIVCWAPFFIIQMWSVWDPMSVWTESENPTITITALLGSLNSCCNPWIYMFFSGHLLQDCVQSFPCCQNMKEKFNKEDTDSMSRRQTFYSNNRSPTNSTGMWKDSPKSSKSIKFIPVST
Sequence of human V2 receptor (P30518 whole entry): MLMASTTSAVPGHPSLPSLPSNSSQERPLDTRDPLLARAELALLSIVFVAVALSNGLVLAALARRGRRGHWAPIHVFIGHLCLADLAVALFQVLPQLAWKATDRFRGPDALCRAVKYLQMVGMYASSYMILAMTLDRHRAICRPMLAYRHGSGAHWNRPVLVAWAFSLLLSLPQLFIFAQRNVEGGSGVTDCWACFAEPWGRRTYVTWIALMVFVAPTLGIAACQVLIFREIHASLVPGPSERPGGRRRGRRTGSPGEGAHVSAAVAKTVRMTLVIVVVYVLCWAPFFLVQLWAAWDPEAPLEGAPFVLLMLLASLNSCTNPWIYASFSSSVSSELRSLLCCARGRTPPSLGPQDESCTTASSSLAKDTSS

## CN(C)CCNC(=O)C1=C[C@]2(CC1)CCN(C(=O)c1ccc(NC(=O)c3ccccc3-c3ccccc3)cc1)c1ccccc1C2 [Compound 20, (S)-4-(2-phenylbenzoyl-4-aminobenzoyl)-3′-(2-(N,N-dimethylaminoethylaminocarbonyl))-4-aza-[6,4]-spiro-[5,6]-benzoundec-2′-ene]
V1a [1]
  IC50: 0.003 µM
V1b
  Receptor Binding V1b (% Inh. @ concentration in μM): 13% @ 10
Human V2 receptor
  IC50: 0.016 µM
V1a [2]
  IC50: 0.002 µM
